Laboratory results from publication PMC11124822, “Discovery and Anticancer Screening of Novel Oxindole-Based Derivative Bearing Pyridyl Group as Potent and Selective Dual FLT3/CDK2 Kinase Inhibitor” (Pharmaceuticals, 2024).
Read-outs that look alike come from different tables or passages of the source.

Experiments:
Experiment in all cases: NCI-60 antiproliferative screen (SRB)
HCC-2998 = format: cell-based, human; details: 48 h
KM12 = format: cell-based, human; details: 48 h
A498 = format: cell-based, human; details: 48 h
SNB-75 = details: Homo sapiens, SNB-75, 48 h, read-out: Growth inhibition (%)
SK-MEL-2 = format: cell-based, human; details: 48 h
UO-31 = format: cell-based, human; details: five-dose, 48 h, UO-31
HT29 = format: cell-based, human; details: 48 h
MDA-MB-231 = format: cell-based, human; details: 48 h
T-47D = format: cell-based, human; details: 48 h
SNB-19 = format: cell-based, human; details: 48 h
SR = details: Homo sapiens, 48 h, read-out: Growth inhibition (%)
Experimental: Anticancer activity was tested against 60 cancer cell lines (NCI-60) after 48h treatments with a single dosage of 10 μM of compounds by using sulforhodamine B assay [39] on the traditional 96-well platform. […] The human cancer cell lines of the NCI-60 panel are grown in RPMI 1640 medium supplemented with 5% FBS (fetal bovine serum) and 2 mM L-glutamine. […] For further analysis of promising compounds, five dose screens were performed against the NCI-60 panel. Drug treatments are performed in 5 doses using 10-fold or ½ log dose dilutions.

HOP-92 = format: cell-based, human; details: 48 h
HL-60(TB) = format: cell-based, human; details: 48 h
K-562 = format: cell-based, human; details: 48 h
RXF 393 = format: cell-based, human; details: 48 h
MALME-3M = format: cell-based, human; details: five-dose, 48 h, MELME-3M
MCF7 = format: cell-based, human; details: 48 h
NCI-H322M = format: cell-based, human; details: five-dose, 48 h, NCI-H322M
A549/ATCC = format: cell-based, human; details: 48 h
RPMI-8226 = format: cell-based, human; details: 48 h
MOLT-4 = format: cell-based; details: Homo sapiens, 48 h
SW-620 = format: cell-based, human; details: 48 h
SK-MEL-5 = format: cell-based, human
U251 = format: cell-based, human; details: 48 h
HOP-62 = format: cell-based, human; details: 48 h
PC-3 = format: cell-based, human; details: 48 h
COLO 205 = format: cell-based, human; details: 48 h
TK-10 = format: cell-based, human; details: 48 h
MDA-MB-468 = format: cell-based, human; details: 48 h
OVCAR-3 = format: cell-based, human; details: 48 h

## O=C1Nc2cc(Cl)ccc2C1=Cc1ccc(OCc2cccnc2)cc1 (mixture of isomers) [Compound 5l, (E/Z)-6-Chloro-3-[4-(pyridin-3-ylmethoxy)benzylidene] indolin-2-one]
HCC-2998; Homo sapiens, 10 µM single dose, HCC-2998 (Colon), read-out: Growth inhibition (%)
  inhibition at 10 µM: 50.9%
HCC-2998; Homo sapiens, five-dose, HCC-2998
  GI50: 13.7 µM
HCC-2998; Homo sapiens, five-dose, HCC-2998, read-out: LC50 (the source's name)
  CC50: > 100 µM
HCC-2998; five-dose, HCC-2998
  TGI: >100 µM
KM12; Homo sapiens, 10 µM single dose, KM12 (Colon), read-out: Growth inhibition (%)
  inhibition at 10 µM: 99.7%
KM12; Homo sapiens, five-dose, KM12
  GI50: 5.3 µM
KM12; five-dose, KM12
  TGI: >100 µM
A498; Homo sapiens, 10 µM single dose, A498 (Renal), read-out: Growth inhibition (%)
  inhibition at 10 µM: 8.9%
A498; Homo sapiens, five-dose, A498
  GI50: 18 µM
A498; Homo sapiens, five-dose, A498, read-out: LC50 (the source's name)
  CC50: > 100 µM
A498; five-dose, A498
  TGI: 85.20 µM
SNB-75
  inhibition at 10 µM: 18.3%
SK-MEL-2; Homo sapiens, 10 µM single dose, SK-MEL-2 (Melanoma), read-out: Growth inhibition (%)
  inhibition at 10 µM: 66.2%
SK-MEL-2; Homo sapiens, five-dose, SK-MEL-2
  GI50: 9.67 µM
SK-MEL-2; Homo sapiens, five-dose, SK-MEL-2, read-out: LC50 (the source's name)
  CC50: > 100 µM
SK-MEL-2; five-dose, SK-MEL-2
  TGI: 65.90 µM
UO-31; Homo sapiens
  GI50: 2700 nM
UO-31; Homo sapiens, read-out: LC50 (the source's name)
  CC50: > 100 µM
UO-31
  TGI: >100 µM
HT29; Homo sapiens, HT-29, 10 µM single dose, HT29 (Colon), read-out: Growth inhibition (%)
  inhibition at 10 µM: 90.3%
HT29; Homo sapiens, HT-29, five-dose, HT29
  GI50: 6.45 µM
HT29; Homo sapiens, HT-29, five-dose, HT29, read-out: LC50 (the source's name)
  CC50: > 100 µM
HT29; five-dose, HT29
  TGI: 37.80 µM
MDA-MB-231; Homo sapiens, 10 µM single dose, MDA-MB-231 (Breast), read-out: Growth inhibition (%)
  inhibition at 10 µM: 67.5%
MDA-MB-231; Homo sapiens, five-dose, MDA-MB-231/ATCC
  GI50: 15.8 µM
MDA-MB-231; Homo sapiens, five-dose, MDA-MB-231/ATCC, read-out: LC50 (the source's name)
  CC50: > 100 µM
MDA-MB-231; five-dose, MDA-MB-231/ATCC
  TGI: >100 µM
T-47D; Homo sapiens, T47D, 10 µM single dose, T-47D (Breast), read-out: Growth inhibition (%)
  inhibition at 10 µM: 69%
T-47D; Homo sapiens, T47D, five-dose, T-47D
  GI50: 3.18 µM
T-47D; Homo sapiens, T47D, five-dose, T-47D, read-out: LC50 (the source's name)
  CC50: > 100 µM
T-47D; five-dose, T-47D
  TGI: >100 µM
SNB-19; Homo sapiens, 10 µM single dose, SNB-19 (CNS), read-out: Growth inhibition (%)
  inhibition at 10 µM: 56.2%
SNB-19; Homo sapiens, five-dose, SNB-19
  GI50: 12.4 µM
SNB-19; five-dose, SNB-19
  TGI: >100 µM
SR
  inhibition at 10 µM: 84.2%
HOP-92; Homo sapiens, 10 µM single dose, HOP-92 (NSCLC), read-out: Growth inhibition (%)
  inhibition at 10 µM: 56.1%
HOP-92; Homo sapiens, five-dose, HOP-92
  GI50: 6.51 µM
HOP-92; five-dose, HOP-92
  TGI: 62.70 µM
HL-60(TB); Homo sapiens, HL-60, five-dose, HL60(TB)
  GI50: 4.08 µM
HL-60(TB); Homo sapiens, HL-60, five-dose, HL60(TB), read-out: LC50 (the source's name)
  CC50: > 100 µM
HL-60(TB); Homo sapiens, 10 µM single dose, HL-60(TB) (Leukemia), read-out: Growth inhibition (%)
  inhibition at 10 µM: 95.5%
HL-60(TB); five-dose, HL60(TB)
  TGI: >100 µM
K-562; Homo sapiens, K562, 10 µM single dose, K-562 (Leukemia), read-out: Growth inhibition (%)
  inhibition at 10 µM: 95%
K-562; Homo sapiens, K562, five-dose, K-562
  GI50: 3.08 µM
K-562; Homo sapiens, K562, five-dose, K-562, read-out: LC50 (the source's name)
  CC50: > 100 µM
K-562; five-dose, K-562
  TGI: >100 µM
RXF 393; Homo sapiens, RXF 393, five-dose, RXF393
  GI50: 9.07 µM
RXF 393; Homo sapiens, RXF 393, five-dose, RXF393, read-out: LC50 (the source's name)
  CC50: > 100 µM
RXF 393; Homo sapiens, 10 µM single dose, RXF 393 (Renal), read-out: Growth inhibition (%)
  inhibition at 10 µM: 63.4%
RXF 393; five-dose, RXF393
  TGI: 90.20 µM
MALME-3M; Homo sapiens, Malme-3M
  GI50: 18.9 µM
MALME-3M
  TGI: 75.70 µM
MCF7; Homo sapiens, 10 µM single dose, MCF7 (Breast), read-out: Growth inhibition (%)
  inhibition at 10 µM: 90.5%
MCF7; Homo sapiens, five-dose, MCF7
  GI50: 2900 nM
MCF7; Homo sapiens, five-dose, MCF7, read-out: LC50 (the source's name)
  CC50: > 100 µM
MCF7; five-dose, MCF7
  TGI: 30.90 µM
NCI-H322M; Homo sapiens
  GI50: 23.2 µM
NCI-H322M
  TGI: >100 µM
A549/ATCC; Homo sapiens, 10 µM single dose, A549/ATCC (NSCLC), read-out: Growth inhibition (%)
  inhibition at 10 µM: 58.8%
A549/ATCC; Homo sapiens, five-dose, A549/ATCC
  GI50: 15.5 µM
A549/ATCC; five-dose, A549/ATCC
  TGI: >100 µM
RPMI-8226; Homo sapiens, 10 µM single dose, RPMI-8226 (Leukemia), read-out: Growth inhibition (%)
  inhibition at 10 µM: 95.5%
RPMI-8226; Homo sapiens, five-dose, RPMI-8226
  GI50: 3.09 µM
RPMI-8226; Homo sapiens, five-dose, RPMI-8226, read-out: LC50 (the source's name)
  CC50: > 100 µM
RPMI-8226; five-dose, RPMI-8226
  TGI: >100 µM
MOLT-4; 10 µM single dose, MOLT-4 (Leukemia), read-out: Growth inhibition (%)
  inhibition at 10 µM: 98.1%
MOLT-4; five-dose, MOLT-4
  GI50: 2990 nM
MOLT-4; five-dose, MOLT-4, read-out: LC50 (the source's name)
  CC50: > 100 µM
SW-620; Homo sapiens, 10 µM single dose, SW-620 (Colon), read-out: Growth inhibition (%)
  inhibition at 10 µM: 92.7%
SW-620; Homo sapiens, five-dose, SW-620
  GI50: 2760 nM
SW-620; five-dose, SW-620
  TGI: >100 µM
SK-MEL-5; Homo sapiens, SK-MEL-5, 48 h, five-dose, SK-MEL-5, read-out: LC50 (the source's name)
  CC50: 65.6 µM
SK-MEL-5; Homo sapiens, 10 µM single dose, 48 h, SK-MEL-5 (Melanoma), read-out: Growth inhibition (%)
  inhibition at 10 µM: 153%
SK-MEL-5; Homo sapiens, five-dose, 48 h, SK-MEL-5
  GI50: 3.46 µM
SK-MEL-5; five-dose, 48 h, SK-MEL-5, read-out: LC50 (the source's name)
  CC50: 71.5 µM
U251; Homo sapiens, U-251, 10 µM single dose, U251 (CNS), read-out: Growth inhibition (%)
  inhibition at 10 µM: 76.4%
U251; Homo sapiens, U-251, five-dose, U251
  GI50: 7.55 µM
U251; Homo sapiens, U-251, five-dose, U251, read-out: LC50 (the source's name)
  CC50: > 100 µM
U251; five-dose, U251
  TGI: 39.40 µM
HOP-62; Homo sapiens, 10 µM single dose, HOP-62 (NSCLC), read-out: Growth inhibition (%)
  inhibition at 10 µM: 72.9%
HOP-62; Homo sapiens, five-dose, HOP-62
  GI50: 12.9 µM
HOP-62; Homo sapiens, five-dose, HOP-62, read-out: LC50 (the source's name)
  CC50: > 100 µM
HOP-62; five-dose, HOP-62
  TGI: >100 µM
PC-3; Homo sapiens, 10 µM single dose, PC-3 (Prostate), read-out: Growth inhibition (%)
  inhibition at 10 µM: 67.1%
PC-3; Homo sapiens, five-dose, PC-3
  GI50: 6.37 µM
PC-3; Homo sapiens, five-dose, PC-3, read-out: LC50 (the source's name)
  CC50: > 100 µM
PC-3; five-dose, PC-3
  TGI: >100 µM
COLO 205; Homo sapiens, 10 µM single dose, COLO 205 (Colon), read-out: Growth inhibition (%)
  inhibition at 10 µM: 96.4%
COLO 205; Homo sapiens, five-dose, COLO 205
  GI50: 9.62 µM
COLO 205; five-dose, COLO 205
  TGI: >100 µM
TK-10; Homo sapiens, 10 µM single dose, TK-10 (Renal), read-out: Growth inhibition (%)
  inhibition at 10 µM: 29.4%
TK-10; Homo sapiens, five-dose, TK-10
  GI50: 77.1 µM
TK-10; Homo sapiens, five-dose, TK-10, read-out: LC50 (the source's name)
  CC50: > 100 µM
TK-10; five-dose, TK-10
  TGI: >100 µM
MDA-MB-468; Homo sapiens, 10 µM single dose, MDA-MB-468 (Breast), read-out: Growth inhibition (%)
  inhibition at 10 µM: 85.7%
MDA-MB-468; Homo sapiens, five-dose, MDA-MB-468
  GI50: 3.76 µM
MDA-MB-468; Homo sapiens, five-dose, MDA-MB-468, read-out: LC50 (the source's name)
  CC50: > 100 µM
MDA-MB-468; five-dose, MDA-MB-468
  TGI: 43.00 µM
OVCAR-3; Homo sapiens, 10 µM single dose, OVCAR-3 (Ovarian), read-out: Growth inhibition (%)
  inhibition at 10 µM: 61.8%
OVCAR-3; Homo sapiens, five-dose, OVCAR-3
  GI50: 57.7 µM
OVCAR-3; Homo sapiens, five-dose, OVCAR-3, read-out: LC50 (the source's name)
  CC50: > 100 µM
OVCAR-3; five-dose, OVCAR-3
  TGI: 2.26 µM
